The values that follow come from US20100247658A1, “ORGANIC COMPOUNDS” (priority 2007, published 2010).

For data set [1] the following is noted: prior to micronisation.
For data set [2] the following is noted: micronised, heated for 5 hours at 70° C. in a thermal oven; cited from earlier work.

As for `C[N+]1(C)CCC(OC(=O)C(O)(c2ccccc2)C2CCCC2)C1.[Br-]` (centres unmarked) [glycopyrrolate, 3-[(cyclopentyl-hydroxyphenylacetyl)oxy]-1,1-dimethyl-pyrrolidinium bromide], the dispersive surface energy in data set [1] was 48 mJ/m^2.
As for salbutamol sulfate, in data set [2], the “recrystallisation of amorphous parts / stable product” value is listed as “failed to lead to recrystallisation”.
